Test results reported in US11117904B2, “Compositions and methods for the delivery of therapeutics” (ViiV Healthcare Company, priority 2016, dated 2021).

Experiments:
[1] = tested on: human monocyte derived macrophages (MDM); assay: Uptake and retention of drug in human monocyte derived macrophages (HPLC); assay type: cell-based
Experimental: Human monocytes were cultured in macrophage colony stimulating factor containing cell culture medium for 7-10 days in order to differentiate into macrophages (Balkundi et al. (2011) Intl. J. Nanomed., 6:3393-3404; Nowacek et al. (2009) Nanomed., 4(8):903-917). The macrophages were incubated with a range of formulations and native drugs. At each time point, adherent MDM were washed three times with 1 mL of PBS, scraped into 1 mL of fresh PBS and pelleted by centrifugation at 950×g for 8 minutes. The cell pellet was reconstituted in 200 μl of high performance liquid chromatography (HPLC)-grade methanol and probe sonicated followed by centrifugation at 20,000×g for 20 minutes. The supernatant was analyzed for drug content using HPLC (FIG. 2A and FIG. 2B). […] Human monocytes were cultured in macrophage colony stimulating factor containing cell culture medium for 7-10 days in order to differentiate into macrophages (Balkundi et al. (2011) Intl. J. Nanomed., 6:3393-3404; Nowacek et al. (2009) Nanomed., 4(8):903-917). The macrophages were incubated with a range of formulations and native drugs. At each time point, adherent monocyte-derived macrophage (MDM) were washed three times with 1 mL of PBS, scraped into 1 mL of fresh PBS and pelleted by centrifugation at 950×g for 8 minutes. […] The supernatant was analyzed for drug content using HPLC (FIGS. 4A and 4B). […]

[2] = Nanoparticle characterization by dynamic light scattering; assay type: physicochemical; settings: upon derivatization of native drug into prodrug
Experimental: Nanoformulations were characterized for particle size, polydispersity index (PDI) and zeta potential by dynamic light scattering (FIG. 1). This was done using a Malvern Zetasizer, Nano Series Nano-ZS (Malvern Instruments Inc., Westborough, Mass.). Nanoparticle morphology was determined by scanning electron microscopy (SEM). Ultra performance liquid chromatography tandem mass-spectrometry (UPLC MS/MS) was used for drug quantitation. […] Further, the improved hydrophobicity of MDTG facilitated production of stable formulations with high drug loading capacity. Nanoformulations were characterized for particle size, polydispersity index (PDI) and zeta potential by dynamic light scattering (DLS) (Table 1). This was done using a Malvern Zetasizer, Nano Series Nano-ZS (Malvern Instruments Inc, Westborough, Mass.). Nanoparticle morphology was determined by scanning electron microscopy (SEM). UPLC MS/MS was used for drug quantitation. […] The improved hydrophobicity of MCAB facilitated production of stable formulations with high drug loading capacity.

[3] = tested on: HIV-1ADA; assay: Antiretroviral activity in MDM challenged with HIV-1ADA (RT activity, HIV-1 p24 staining); assay type: cell-based; settings: MDM treated with 100 μM for 8 hours, challenged with HIV-1ADA at MOI 0.01; RT activity and p24
Experimental: MDM were treated with either 100 μM DTG, MDTG, P407-MDTG or FA-P407-MDTG for 8 hours. The cells were washed with PBS to remove excess of free drug and nanoparticles. The MDM were challenged with HIV-1ADA at a MOI of 0.01 infectious viral particles/cell for 18 hours on day 1, 5, 10 and 15. Progeny virion production was measured by reverse transcriptase (RT) activity in culture medium (Kalter et al. (1992) J. Clin. Microbiol., 30(4):993-995) (FIG. 2C). HIV-1 p24 protein antigen expression was assessed (Guo et al. (2014) J. Virol., 88(17):9504-9513). The MDM were washed with PBS and fixed with 4% paraformaldehyde for 15 minutes at room temperature. The cells were blocked using 10% BSA containing 1% Triton X-100 in PBS for 30 minutes at room temperature. Following blocking, cells were incubated with HIV-1 p24 mouse monoclonal antibodies (1:50; Dako, Carpinteria, Calif., USA) for overnight at 4° C., followed by 1 hour incubation at room temperature. […]
MDM were treated with either 100 μM CAB long acting parenteral (CAB-LAP), P407-CAB, P407-MCAB or FA-P407-MCAB for 8 hours. […] Progeny virion production was measured by reverse transcription (RT) activity in culture medium (Kalter et al. (1992) J. Clin. Microbiol., 30(4):993-995). HIV-1 p24 protein antigen expression was assessed (Guo et al. (2014) J. Virol., 88(17):9504-9513) (FIG. 4C). […]

| intracellular accumulation of the drug ([1]; MDM, compared to CAB-LAP) | hydrophobicity [2] | MDM retention ([1]; cellular retention in MDM) | Compound | antiretroviral efficacy [3] |
| --- | --- | --- | --- | --- |
| significantly improved | greatly improved | – | CCCCCCCCCCCCCC(=O)Oc1c2n(cc(C(=O)NCc3ccc(F)cc3F)c1=O)CC1OCC(C)N1C2=O (centres unmarked) [MCAB] | – |
| – | greatly improved | significant enhancements | CCCCCCCCCCCCCC(=O)Oc1c2n(cc(C(=O)NCc3ccc(F)cc3F)c1=O)C[C@@H]1OCC[C@@H](C)N1C2=O [MDTG] | significant enhancements |
